In US6348445B1, “Biologically active peptides with reduced toxicity in animals and a method for preparing same” (priority 1992, dated 2002):
Where two headings read alike, the source gives them in different places. Where a SMILES comes first, the peptide text is derived from it. [ ]: non-standard residue; d: D form. The star is where a group is joined. Octanoyl = CCCCCCCC(=O)*; Orn = NCCC[C@H](N)C(=O)O; Pentanoyl = CCCCC(=O)*

Key:
Format in all cases: cell-based
[1] = system: E. coli ATCC strain 25922; test: Minimal Inhibitory Concentration, microtiter broth dilution; settings: ATCC strain 25922
Procedure, shortened: (§1)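 Peptides serially diluted 1:2 to final 0.25–256 μg/ml in Mueller Hinton broth, inoculated with 1-5×10^5 CFUs/ml from mid-log culture. Incubated 16-20 hours at 37° C. MIC = lowest peptide concentration giving a clear well.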

[2] = system: P. aeruginosa strain ATCC 27853; settings: ATCC 27853
Procedure, shortened: as §1

[3] = system: C. albicans
Procedure, shortened: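 Peptides serially diluted 1:2 to final 0.25–256 μg/ml; inoculum 1-5×10^5 CFU/ml from mid-log culture in full-strength Mueller Hinton broth. Incubated 16-20 h at 37° C. MIC taken as lowest peptide concentration giving a clear well.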

Compound | Minimal Inhibitory Concentration E [1] [µg/mL] | Minimal Inhibitory Concentration P [2] | Minimal Inhibitory Concentration CA ([3]; C. albicans, Table I) | Minimal Inhibitory Concentration CA [3] [µg/mL]
CCCCCCCC(=O)N[C@@H](CC(C)C)C(=O)N[C@@H](CCCCN)C(=O)N[C@@H](CCCCN)C(=O)N[C@@H](CC(C)C)C(=O)N[C@@H](CCCCN)C(=O)N[C@@H](CCCCN)C(=O)N[C@@H](CC(C)C)C(N)=O [Oct-(SEQ ID NO: 106)-NH2] (Octanoyl-LKKLKKL-NH2) | 128 | 32,64 μg/ml | 64,128 μg/ml | –
CCCCCCCC(=O)N[C@@H](CCCCN)C(=O)N[C@@H](Cc1ccccc1)C(=O)N[C@@H](C)C(=O)N[C@@H](CCCCN)C(=O)N[C@@H](CCCCN)C(=O)N[C@@H](Cc1ccccc1)C(=O)N[C@@H](C)C(N)=O [Oct-(SEQ ID NO: 118)-NH2] (Octanoyl-KFAKKFA-NH2) | >256 | >256 µg/mL | – | >256
CCCCCCCC(=O)N[C@@H](CCCCN)C(=O)N[C@@H](Cc1ccccc1)C(=O)N[C@@H](C)C(=O)N[C@@H](CCCCN)C(=O)N[C@@H](Cc1ccccc1)C(=O)N[C@@H](C)C(=O)N[C@@H](CCCCN)C(=O)N[C@@H](CCCCN)C(=O)N[C@@H](Cc1ccccc1)C(=O)N[C@@H](C)C(N)=O [Oct-(SEQ ID NO: 121)-NH2] (Octanoyl-KFAKFAKKFA-NH2) | 256 | 256 µg/mL | – | 256
CCCCCCCC(=O)N[C@@H](CCCN)C(=O)N[C@@H](CCCN)C(=O)N[C@@H](CC(C)C)C(=O)N[C@@H](CC(C)C)C(=O)N[C@@H](CCCN)C(=O)N[C@@H](CCC(N)=O)C(=O)N[C@@H](CC(C)C)C(=O)N[C@@H](CCCN)C(=O)N[C@@H](CCCN)C(=O)N[C@@H](CC(C)C)C(N)=O [Oct-(SEQ ID NO: 144)-NH2] (Octanoyl-[Orn][Orn]LL[Orn]QL[Orn][Orn]L-NH2) | 16 | 4 µg/mL | – | 32
CCCCCCCC(=O)N[C@@H](CC(C)C)C(=O)N[C@@H](CCCCN)C(=O)N[C@@H](CCCCN)C(=O)N[C@@H](CC(C)C)C(=O)N[C@@H](CC(C)C)C(=O)N[C@@H](CCCCN)C(=O)N[C@@H](CCCCN)C(=O)N[C@@H](CC(C)C)C(=O)N[C@@H](CCCCN)C(=O)N[C@@H](CCCCN)C(=O)N[C@@H](CC(C)C)C(N)=O [Oct-(SEQ ID NO: 110)-NH2] (Octanoyl-LKKLLKKLKKL-NH2) | 8 | 4 µg/mL | – | 32
CCCCCCCC(=O)N[C@@H](CCCCN)C(=O)N[C@@H](CCCCN)C(=O)N[C@@H](Cc1ccccc1)C(=O)N[C@@H](C)C(=O)N[C@@H](CCCCN)C(=O)N[C@@H](Cc1ccccc1)C(=O)N[C@@H](C)C(=O)N[C@@H](CCCCN)C(=O)N[C@@H](CCCCN)C(=O)N[C@@H](Cc1ccccc1)C(=O)N[C@@H](C)C(N)=O [Oct-(SEQ ID NO: 122)-NH2] (Octanoyl-KKFAKFAKKFA-NH2) | 64 | 32 µg/mL | – | 64
CCCCC(=O)N[C@@H](CC(C)C)C(=O)N[C@@H](CCCCN)C(=O)N[C@@H](CCCCN)C(=O)N[C@@H](CC(C)C)C(=O)N[C@@H](CC(C)C)C(=O)N[C@@H](CCCCN)C(=O)N[C@@H](CCCCN)C(=O)N[C@@H](CC(C)C)C(=O)N[C@@H](CCCCN)C(=O)N[C@@H](CCCCN)C(=O)N[C@@H](CC(C)C)C(N)=O [Val-(SEQ ID NO: 110)-NH2] (Pentanoyl-LKKLLKKLKKL-NH2) | 32 | 8 µg/mL | – | 32
